Measurements as given in patent US8741871B2, “Trehalose compound, method for producing same, and pharmaceutical product containing the compound” (priority 2008, dated 2014).

What was measured:
[1] = tested on: Salmonella typhmurium TA98; experiment: Mutagenicity test (Ames test); conditions: TA98, in the presence or absence of S9 mix; FIG. 11
[2] = tested on: IL-6, TNF-α, IFN-γ in mouse plasma; experiment: Measurement of IL-6, TNF-α and IFN-γ released into peripheral blood of test compound administered mouse; conditions: 100 μg/mouse intravenous, two hours later; for IL-6-releasing activity (mouse plasma IL-6 concentration) compared with TDCM: FIG. 6; for IFN-γ-releasing activity (mouse plasma IFN-γ concentration) compared with TDCM: FIG. 7
[3] = tested on: Welch bacillus toxin (recombinant α-toxin); conditions: in vivo, ip
[4] = tested on: Welch bacillus (Type A; NTCT8237); format: in vivo; conditions: 100 μg/mouse i.p. three hours before Welch bacillus 2.4×10^7 cells/mouse i.p.
Experimental: As test compounds, 1 mg each of the compound synthesized by the method described in Production Example α-1 and TDCM were weighed. Emulsion solutions of the test compounds (1 mg/ml) were prepared in the same manner as described above.
[…] of Brain Heart Infusion (BHI) (Difco) powders were dissolved in 200 ml of distilled water. 40 ml of the obtained solution (hereinafter this solution is referred to as a “BHI medium”) was withdrawn with a measuring pipette, and it was then added to a 200-ml flask, followed by performing a high-pressure steam sterilization (121° C., 20 minutes). In addition, 5 ml of the BHI medium was added to two screw-top test tubes, and they were then subjected to a high-pressure steam sterilization. Moreover, a glass tube-equipped rubber plug (with a cotton plug) and a glass tube were also subjected to a high-pressure steam sterilization. In a clean bench, an appropriate amount of bacteria for preservation, which had grown on a cooked meat medium, was collected with a sterilized Pasteur pipette, and it was then inoculated on the BHI medium in the aforementioned sterilized screw-top test tube. Subsequently, it was incubated at 37° C. overnight.
In a clean bench, bacteria that had grown in the screw-top test tube (wherein the inside of the […] in which bacteria had grown became clouded, and gas was generated) was transferred into a 200-ml Erlenmeyer flask, which contained 40 ml of BHI medium. A glass tube was inserted into the medium, so as to carry out nitrogen substitution for 10 minutes. Subsequently, the glass tube-equipped rubber plug (with a cotton plug) was equipped in the Erlenmeyer flask (since Welch bacillus generates gas, it is necessary to make an air vent), and incubation was then carried out at 37° C. for 4 to 5 hours. Thereafter, the cultured Welch bacillus was transferred into a centrifuge tube, it was then centrifuged (9000 rpm, 15 minutes), and the supernatant was then removed. 20 ml of sterilized normal saline solution was added to the precipitate, so that the bacteria were suspended therein. The suspension was centrifuged (9000 rpm, 15 minutes), and the supernatant was then removed.
Mice (ICR, 6-week-old) were divided into three groups, and the following test was then carried out.
An emulsion solution containing the test compound, an emulsion solution containing TDCM, or an emulsion solution alone, which was to be used as a control, was intraperitoneally administered in an amount of 100 μg/mouse to a group of four mice (100 μl/mouse, in the case of the emulsion solution alone). Three hours later, Welch bacillus (2.4×10^7 cells/mouse) was intraperitoneally administered to the mice. Thereafter, the condition of the mice was observed.

[5] = tested on: THP-1 cells; experiment: Analysis of cytotoxicity to THP-1 cells using trypan blue; format: cell-based, human; conditions: treated for 2 hours and for 24 hours; FIG. 10
Experimental: The cultured THP-1 cells were transferred into a 50-ml centrifuge tube in a clean bench. The cells were then centrifuged at 1,000 rpm for 5 minutes at 20° C., and the supernatant was then removed. […] 10 μl of this cell suspension was added to a sterile Eppendorf tube, to which 990 μl of serum-free RPMI 1640 medium had previously been added, so that the solution was 100-fold diluted. The number of cells in 10 μl of the 100-fold diluted solution was counted with a blood cell counter, and the cell suspension was diluted with serum-free RPMI 1640 medium to a cell density of 1×10^7 cells/ml.
A test compound (Example 9)/DMSO solution, or DMSO was added to 100 μl of RPMI medium to a concentration of 200 μM. Thereafter, ultrasonic wave was applied to the mixture for 5 seconds. It is to be noted that a test compound, 6-O-(2-decyldecanoyl)-α-glucose (hereinafter referred to as a “control compound B”), and TDCM were used to prepare positive controls in the same manner as described above. In addition, a negative control was prepared by adding no test compounds (vehicle). […] Subsequently, 20 μl of 0.3% trypan blue/PBS (−) was added to the reaction solution so as to suspend the reaction solution therein, and thereafter, the survival rate of the cells was immediately analyzed using a cell number measuring apparatus (CYRORECON).

## Nc1ccc2cc3ccccc3cc2c1 [2-aminoanthracene, reference compound]
[1]
  mutagenicity (Ames test, number of His colonies): positive

## CCCCCCCCCCCCCC(CCCCCCCCCCCCC)CC(=O)OCC1O[C@H](O[C@H]2OC(COC(=O)CC(CCCCCCCCCCCCC)CCCCCCCCCCCCC)[C@@H](O)C(O)C2O)C(O)C(O)[C@@H]1O (stereo partly drawn) [Example 13, 6,6′-bis-O-(3-tridecylhexadecanoyl)-α,α′-trehalose]
[2]
  IL-6-releasing activity (mouse plasma IL-6 concentration) compared with TDCM: approximately a half of
  IFN-γ-releasing activity (mouse plasma IFN-γ concentration) compared with TDCM: approximately a half of

## CCCCCCCCCCCCCCC[C@@H](O)[C@@H](CCCCCCCCCCCCCC)C(=O)OC[C@H]1O[C@H](O[C@H]2O[C@H](COC(=O)[C@H](CCCCCCCCCCCCCC)[C@H](O)CCCCCCCCCCCCCCC)[C@@H](O)[C@H](O)[C@H]2O)[C@H](O)[C@@H](O)[C@@H]1O [TDCM, trehalose dicorynomycolate, reference compound]
[3]
  Number of surviving mice/number of treated mice, 2 hours later: 4/4
  Number of surviving mice/number of treated mice, 6 hours later: 4/4
  Number of surviving mice/number of treated mice, 12 hours later: 4/4
  Number of surviving mice/number of treated mice, 24 hours later: 2/4
  Number of surviving mice/number of treated mice, 48 hours later: 2/4
[4]; 2 hours later
  Number of surviving mice/number of treated mice, 2 hours later: 4/4
[4]; 6 hours later
  Number of surviving mice/number of treated mice, 6 hours later: 4/4
[4]; 12 hours later
  Number of surviving mice/number of treated mice, 12 hours later: 4/4
[4]; 24 hours later
  Number of surviving mice/number of treated mice, 24 hours later: 4/4
[4]; 48 hours later
  Number of surviving mice/number of treated mice, 48 hours later: 4/4

## CCCCCCCCCCC(CCCCCCCC)C(=O)OC[C@H]1O[C@H](O)[C@H](O)[C@@H](O)[C@@H]1O (stereo partly drawn) [control compound B, 6-O-(2-decyldecanoyl)-α-glucose, reference compound]
[5]
  cytotoxicity to THP-1 cells (survival rate, trypan blue staining): cytotoxicity was observed

## CCCCCCCCCCCCCCC(CCCCCCCCCCCCCC)CC(=O)OCC1O[C@H](O[C@H]2OC(COC(=O)CC(CCCCCCCCCCCCCC)CCCCCCCCCCCCCC)[C@@H](O)C(O)C2O)C(O)C(O)[C@@H]1O (stereo partly drawn) [Example 14, 6,6′-bis-O-(3-tetradecylheptadecanoyl)-α,α′-trehalose]
[2]
  IL-6-releasing activity (mouse plasma IL-6 concentration) compared with TDCM: approximately equivalent to
  IFN-γ-releasing activity (mouse plasma IFN-γ concentration) compared with TDCM: approximately equivalent to
